Assay results taken from US11390613B2, “Azole analogues and methods of use thereof” (UNIVERSITY OF CONNECTICUT, priority 2017, dated 2022).
Converted amounts (≈) assume the structure as drawn. Where two headings read alike, the source gives them in different places.

Key:
[1] = test system: primary murine Hh-dependent MB cell line (MERP); assay: Antiproliferation in primary Hh-dependent MB cells (MERP); format: cell-based; conditions: Mus musculus
Method: Secondary In Vitro Evaluation. Based on their activity in ASZ cells, several compounds were evaluated further in a primary murine Hh-dependent MB cell line (MERP).
(§1) General Information for Cell Culture Studies Protocols for general cell culture, qPCR, and Hh inhibition ASZ cells are as previously described.
(§2) General Information for Cell Culture Studies. Protocols for general cell culture, qPCR, and Hh inhibition ASZ cells are as previously described.

[2] = Metabolic half-life and clearance (HLM); format: in vitro ADME
[3] = Parallel artificial membrane permeability assay (PAMPA); format: in vitro ADME; conditions: passive permeability
Description: (§3) Preliminary In Vitro Pharmacokinetic Assays.

BCRP = molecular target: T1, BCRP (Homo sapiens, UniProt Q9UNQ0); assay: BCRP efflux; format: in vitro ADME; conditions: Table 9
T1 sequence (Q9UNQ0 1-655): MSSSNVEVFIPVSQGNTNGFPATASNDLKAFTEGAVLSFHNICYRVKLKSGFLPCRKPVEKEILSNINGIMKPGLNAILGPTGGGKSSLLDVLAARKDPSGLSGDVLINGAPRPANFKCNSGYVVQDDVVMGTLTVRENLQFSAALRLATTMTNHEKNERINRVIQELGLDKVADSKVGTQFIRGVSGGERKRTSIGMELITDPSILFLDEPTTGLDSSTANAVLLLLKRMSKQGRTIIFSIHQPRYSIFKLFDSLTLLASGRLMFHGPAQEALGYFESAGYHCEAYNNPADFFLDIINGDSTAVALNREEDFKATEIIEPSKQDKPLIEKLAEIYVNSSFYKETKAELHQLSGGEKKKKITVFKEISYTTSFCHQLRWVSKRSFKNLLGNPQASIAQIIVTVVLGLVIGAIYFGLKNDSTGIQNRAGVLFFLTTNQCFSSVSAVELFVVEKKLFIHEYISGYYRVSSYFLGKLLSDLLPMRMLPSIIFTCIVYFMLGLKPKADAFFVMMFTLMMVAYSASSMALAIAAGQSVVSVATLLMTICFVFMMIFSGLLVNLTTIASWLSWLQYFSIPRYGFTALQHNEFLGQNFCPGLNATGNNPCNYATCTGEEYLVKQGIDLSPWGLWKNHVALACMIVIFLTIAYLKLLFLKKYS
Description: as §3

P-glycoprotein (P-gp) = P-glycoprotein (P-gp) (Homo sapiens, UniProt P08183); assay: P-glycoprotein (P-gp) efflux; format: in vitro ADME; conditions: for P-gp: Table 9; for P-gp (Efflux): Table P1
Description: as §3

CYP3A4 = CYP3A4 (Homo sapiens, UniProt P08684); assay: CYP3A4 inhibition
Method: Additionally, CYP3A4 inhibition and P-glycoprotein (P-gp) efflux of each compound were evaluated.

[4] = test system: Gli1 mRNA levels in the murine BCC cell line ASZ-001 (Hh pathway); assay: Hh pathway inhibition: endogenous Gli1 mRNA (qRT-PCR) in ASZ-001 cells; format: cell-based
Method: Initial Hh inhibition studies.
as §1, §2
Gene Expression Assay Protocol (ASZ-001): Cells are seeded (10,000 cells per well; 100 μL total volume per well) in a 96-well tissue culture plate. After 24 h of incubation (37° C., 5% CO2), growth media was removed and replaced with low FBS media. Cells were incubated for an additional 24 h. After this time, DMSO (vehicle control) and liposomes (Aqueous Solution) were added to the wells. […]
Rt-PCR Protocol: Following treatment and incubation periods, both RNA extraction and cDNA synthesis were performed using a TaqMan Cells-to-CT (fast) kit. cDNA synthesis utilized a BioRad MyCycler and was programmed according to the manufacturer's instructions. Quantitative RT-PCR was performed on an ABI 7500 system and made use of the following TaqMan Gene Expression Probes: mouse ActB (Mm00607939_s1) and mouse Gli1 (Mm00494654_m1). Relative gene expression levels were computed via ΔΔCT method using GraphPad Prism. Corresponding IC50 values were calculated as mean±SEM for at least three separate experiments performed in triplicate.

Hh pathway = conditions: background; read-out: IC50 (Hh pathway inhibitor); cited from earlier work
[5] = test system: Gli1 mRNA levels in the murine BCC cell line ASZ-001 (Hh pathway); conditions: background, read-out: IC50 (Hh signaling); cited from earlier work

Chain of CYP3A4 (P08684 whole entry): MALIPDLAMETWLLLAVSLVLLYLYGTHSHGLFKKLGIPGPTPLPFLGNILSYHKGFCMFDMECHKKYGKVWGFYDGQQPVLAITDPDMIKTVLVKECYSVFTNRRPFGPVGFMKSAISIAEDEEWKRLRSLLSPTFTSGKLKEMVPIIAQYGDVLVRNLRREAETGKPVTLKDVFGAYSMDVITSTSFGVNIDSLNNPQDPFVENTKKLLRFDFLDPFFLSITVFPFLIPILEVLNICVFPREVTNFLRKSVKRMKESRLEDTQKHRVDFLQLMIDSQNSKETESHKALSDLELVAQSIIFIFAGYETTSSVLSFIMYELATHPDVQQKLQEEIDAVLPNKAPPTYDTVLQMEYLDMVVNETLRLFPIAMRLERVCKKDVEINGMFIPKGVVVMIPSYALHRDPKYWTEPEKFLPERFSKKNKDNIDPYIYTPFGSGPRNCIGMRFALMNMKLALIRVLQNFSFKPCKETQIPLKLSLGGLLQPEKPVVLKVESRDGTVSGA
Chain of P-glycoprotein (P-gp) (P08183 whole entry): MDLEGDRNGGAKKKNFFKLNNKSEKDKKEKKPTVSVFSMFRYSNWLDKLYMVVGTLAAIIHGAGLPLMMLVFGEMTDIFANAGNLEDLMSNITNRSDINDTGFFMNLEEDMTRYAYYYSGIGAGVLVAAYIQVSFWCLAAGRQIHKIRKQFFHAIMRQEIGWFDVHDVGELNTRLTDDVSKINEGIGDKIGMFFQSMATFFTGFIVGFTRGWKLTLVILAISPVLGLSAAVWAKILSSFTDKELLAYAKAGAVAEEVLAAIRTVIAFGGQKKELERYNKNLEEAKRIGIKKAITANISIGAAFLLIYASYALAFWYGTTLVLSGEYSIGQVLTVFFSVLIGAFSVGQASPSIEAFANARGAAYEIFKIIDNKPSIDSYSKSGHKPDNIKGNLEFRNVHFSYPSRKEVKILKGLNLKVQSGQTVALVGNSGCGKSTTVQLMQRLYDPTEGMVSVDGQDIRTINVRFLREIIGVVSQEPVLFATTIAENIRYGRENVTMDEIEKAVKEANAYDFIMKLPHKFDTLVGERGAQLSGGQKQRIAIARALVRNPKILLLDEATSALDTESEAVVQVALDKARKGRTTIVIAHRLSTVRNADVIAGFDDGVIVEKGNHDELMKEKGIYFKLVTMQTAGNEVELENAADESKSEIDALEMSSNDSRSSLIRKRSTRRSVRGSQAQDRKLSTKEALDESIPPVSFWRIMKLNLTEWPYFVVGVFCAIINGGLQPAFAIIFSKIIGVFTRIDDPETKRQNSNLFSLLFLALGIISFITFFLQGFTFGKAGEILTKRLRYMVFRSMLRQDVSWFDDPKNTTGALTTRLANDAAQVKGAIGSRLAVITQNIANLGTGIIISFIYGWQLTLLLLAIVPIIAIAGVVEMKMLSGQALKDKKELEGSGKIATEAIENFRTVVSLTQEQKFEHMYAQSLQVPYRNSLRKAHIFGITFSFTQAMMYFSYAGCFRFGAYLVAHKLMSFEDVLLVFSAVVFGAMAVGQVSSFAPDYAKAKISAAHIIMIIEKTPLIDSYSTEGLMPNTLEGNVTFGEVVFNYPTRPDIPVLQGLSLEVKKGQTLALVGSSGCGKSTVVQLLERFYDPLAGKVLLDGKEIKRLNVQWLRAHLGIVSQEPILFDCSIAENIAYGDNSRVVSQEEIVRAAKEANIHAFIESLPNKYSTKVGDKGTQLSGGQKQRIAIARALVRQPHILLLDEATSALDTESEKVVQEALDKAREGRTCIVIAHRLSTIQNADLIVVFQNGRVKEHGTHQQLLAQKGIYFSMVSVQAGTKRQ

With C[C@@]1(c2ccc(Cl)cc2Cl)OC[C@@H](COc2ccc(N3CCN(c4ccc(NC(=O)c5cccnc5)cc4)CC3)cc2)O1 [Compound 13, N-(4-(4-(4-(((2R,4R)-2-(2,4-dichlorophenyl)-2-methyl-1,3-dioxolan-4-yl)methoxy)phenyl)piperazin-1-yl)phenyl)nicotinamide] as the compound, how does the IC50 ([1]; Table 6) read?
Its IC50 is > 10000 nM.

And the “T1/2 (HLM, min)” value [2]?
Its value is “significantly different half-lives”.

And the PAMPA [3]?
The PAMPA was “Poor”.

What about the “Solubility” value (Solubility) of the same compound?
Its value is 4.2 nM (≈ 2.6 ng/mL).

Which results are given for C[C@]1(c2ccc(Cl)cc2Cl)OC[C@@H](COc2ccc(N3CCN(c4ccc(NC(=O)c5cccnc5)cc4)CC3)cc2)O1 [Compound 18, N-(4-(4-(4-(((2S,4R)-2-(2,4-dichlorophenyl)-2-methyl-1,3-dioxolan-4-yl)methoxy)phenyl)piperazin-1-yl)phenyl)nicotinamide]?
IC50 ([1]; Table 6): 1100 ± 600 nM; T1/2 (HLM, min) [2]: significantly different half-lives; PAMPA [3]: Poor; BCRP (BCRP): No; P-gp (P-glycoprotein (P-gp)): No; Solubility (Solubility): 6.9 nM (≈ 4.27 ng/mL)

Which IC50 ([1]; Table 6) does the source give for C[C@@]1(c2ccc(Cl)cc2Cl)OC[C@@H](COc2ccc(N3CCN(c4ccc(NC(=O)c5cccc(O)c5)cc4)CC3)cc2)O1 [Compound 27, N-(4-(4-(4-(((2R,4R)-2-(2,4-dichlorophenyl)-2-methyl-1,3-dioxolan-4-yl)methoxy)phenyl)piperazin-1-yl)phenyl)-3-hydroxybenzamide] here?
The IC50 was 2800 ± 1500 nM.

What about the “T1/2 (HLM, min)” value [2] of the same compound?
Its value is >231 min.

And the “Solubility” value (Solubility)?
Its value is 1.4 nM (≈ 0.888 ng/mL).

What does the source list for C[C@]1(c2ccc(Cl)cc2Cl)OC[C@@H](COc2ccc(N3CCN(c4ccc(NC(=O)c5cccc(O)c5)cc4)CC3)cc2)O1 [Compound 30, N-(4-(4-(4-(((2S,4R)-2-(2,4-dichlorophenyl)-2-methyl-1,3-dioxolan-4-yl)methoxy)phenyl)piperazin-1-yl)phenyl)-3-hydroxybenzamide]?
IC50 ([1]; Table 6): 350 ± 60 nM; T1/2 (HLM, min) [2]: did not significantly change; PAMPA [3]: Poor; Solubility (Solubility): 1.6 nM (≈ 1.02 ng/mL); IC50 (CYP3A4; read-out: CYP3A4, Table 9): 11400 nM

With CC(=O)c1cccc(C(=O)Nc2ccc(N3CCN(c4ccc(OC[C@@H]5CO[C@](C)(c6ccc(Cl)cc6Cl)O5)cc4)CC3)cc2)c1 [Compound 34, 3-acetyl-N-(4-(4-(4-(((2S,4R)-2-(2,4-dichlorophenyl)-2-methyl-1,3-dioxolan-4-yl)methoxy)phenyl)piperazin-1-yl)phenyl)benzamide] as the compound, how does the GI50 ([1]; Table 7) read?
Its GI50 is 1000 ± 300 nM.

And the “T1/2 (HLM, min)” value [2]?
The value was 11.4 ± 0.06 min.

What about the “Solubility” value (Solubility) of the same compound?
Its value is 1.4 nM (≈ 0.925 ng/mL).

What about the IC50 (CYP3A4) of the same compound?
Its IC50 is > 30000 nM.

For C[C@@]1(c2ccc(Cl)cc2Cl)OC[C@@H](COc2ccc(N3CCN(c4ccc(NC(=O)NN)cc4)CC3)cc2)O1 [Compound 39, N-(4-(4-(4-(((2R,4R)-2-(2,4-dichlorophenyl)-2-methyl-1,3-dioxolan-4-yl)methoxy)phenyl)piperazin-1-yl)phenyl)hydrazinecarboxamide], which IC50 ([1]; Table 8) is on record?
Its IC50 is 500 ± 400 nM.

What about the “T1/2 (HLM, min)” value [2] of the same compound?
Its value is 20.1 ± 0.6 min.

What about the “Solubility” value (Solubility) of the same compound?
The value was 9.3 nM (≈ 5.32 ng/mL).

What about the IC50 (CYP3A4) of the same compound?
Its IC50 is > 30000 nM.

For C[C@]1(c2ccc(Cl)cc2Cl)OC[C@@H](COc2ccc(N3CCN(c4ccc(NC(=O)NN)cc4)CC3)cc2)O1 [Compound 40, N-(4-(4-(4-(((2S,4R)-2-(2,4-dichlorophenyl)-2-methyl-1,3-dioxolan-4-yl)methoxy)phenyl)piperazin-1-yl)phenyl)hydrazinecarboxamide], which IC50 ([1]; Table 8) is on record?
Its IC50 is 2800 ± 900 nM.

And the “T1/2 (HLM, min)” value [2]?
The value was 11.5 ± 0.1 min.

What about the “Solubility” value (Solubility) of the same compound?
Its value is 1.4 nM (≈ 0.801 ng/mL).

And the IC50 (CYP3A4)?
Its IC50 is > 30000 nM.

Which results are given for CC[C@@H](C)n1ncn(-c2ccc(N3CCN(c4ccc(OC[C@@H]5CO[C@@](C)(c6ccc(F)cc6F)C5)cc4)CC3)cc2)c1=O [Compound P1, 2-((R)-sec-butyl)-4-(4-(4-(4-(((3R,5R)-5-(2,4-difluorophenyl)-5-methyltetrahydrofuran-3-yl)methoxy)phenyl)-piperazin-1-yl)phenyl)-2,4-dihydro-3H-1,2,4-triazol-3-one]?
times more potent than PSZ ([4]; ASZ cells, IC50 ratio vs PSZ): 2.5 times; IC50 ([4]; Mus musculus, ASZ001, Table P1, ASZ cells, Gli1 mRNA, 48 h incubation, read-out: IC50): 0.19 µM; IC50 ([1]; Table P1): 610 ± 120 nM; P-gp (Efflux) (P-glycoprotein (P-gp)): No Efflux; CYP3A4 IC50 (μM) (CYP3A4; Table P1): decreased CYP3A4 inhibition; IC50 (CYP3A4; human): > 20000 nM

For C[C@]1(c2ccc(F)cc2F)C[C@H](COc2ccc(N3CCN(c4ccc(NC(=O)c5cccc(O)c5)cc4)CC3)cc2)CO1 [Compound P25, N-(4-(4-(4-(((3R,5R)-5-(2,4-difluorophenyl)-5-methyltetrahydrofuran-3-yl)methoxy)phenyl)piperazin-1-yl)phenyl)-3-hydroxybenzamide], which IC50 ([4]; Mus musculus, ASZ001, Table P2, ASZ cells, Gli1 mRNA, 48 h incubation, read-out: IC50) is on record?
The IC50 was 0.19 ± 0.03 µM.

With C[C@]1(c2ccc(F)cc2F)C[C@H](COc2ccc(N3CCN(c4ccc(NC(=O)c5cccnc5)cc4)CC3)cc2)CO1 [Compound P26, N-(4-(4-(4-(((3R,5R)-5-(2,4-difluorophenyl)-5-methyltetrahydrofuran-3-yl)methoxy)phenyl)piperazin-1-yl)phenyl)nicotinamide] as the compound, how does the IC50 ([4]; Table P2, ASZ cells, Gli1 mRNA, 48 h incubation, read-out: IC50) read?
The IC50 was 0.038 µM.

For CCC(C)n1ncn(-c2ccc(N3CCN(c4ccc(OCC5COC(Cn6cncn6)(c6ccc(Cl)cc6Cl)O5)cc4)CC3)cc2)c1=O (stereo not shown) [ITZ, Itraconazole, reference compound], which IC50 ([4]; Mus musculus, ASZ001, 48 h, read-out: IC50 (μM) 48 h) is on record?
Its IC50 is 0.11 ± 0.025 µM.

What about the IC50 ([4]; Mus musculus, ASZ001, 96 h, read-out: IC50 (μM) 96 h) of the same compound?
The IC50 was 0.14 ± 0.012 µM.

And the “T1/2 (HLM, min)” value [2]?
Its value is 27.0 ± 6.2 min.

And the PAMPA [3]?
Its PAMPA is “Moderate”.

What about the BCRP (BCRP) of the same compound?
Its BCRP is “No”.

And the P-gp (P-glycoprotein (P-gp))?
The P-gp was “No”.

What about the IC50 (Hh pathway) of the same compound?
The IC50 was 690 nM.

And the “Solubility” value (Solubility)?
The value was 800 nM (≈ 565 ng/mL).

What does the source list for CC[C@@H]([C@H](C)O)n1ncn(-c2ccc(N3CCN(c4ccc(OC[C@@H]5CO[C@@](Cn6cncn6)(c6ccc(F)cc6F)C5)cc4)CC3)cc2)c1=O [PSZ, Posaconazole]?
IC50 ([4]; Mus musculus, ASZ001, 48 h): 0.5 ± 0.1 µM; P-gp (Efflux) (P-glycoprotein (P-gp)): substrate for P-gp; IC50 [5]: 540 nM
